Earlier results on one compound are cited in patent publication US7375230B2, “Fermentation and purification of migrastatin and analog” (Kosan Biosciences, Inc., priority 2000, dated 2008).

SMILES strings stand for the structures.

One data set relates to mouse melanoma B16 cells. As to conditions: compared with clarithromycin and erythromycin.
Data set [1] relates to human esophageal cancer EC17 cells. To be noted: compared with clarithromycin and erythromycin.

On to `CO[C@H]1/C=C/CC/C=C/C(=O)O[C@H]([C@H](C)C(=O)CCCC2CC(=O)NC(=O)C2)/C(C)=C\[C@@H](C)[C@@H]1O` [Migrastatin, migrastatin], for which the “effectiveness against the migration of cells” value in the data set on mouse melanoma B16 cells was “more effective than clarithromycin and erythromycin”; in data set [1], “more effective than clarithromycin and erythromycin”.
